In patent US20240358692A1, “TREATMENT OF SCLERODERMA” (Aisa Pharma, Inc., priority 2023, published 2024):

Tested on: participants with SSc-RP
Test: Frequency of weekly RP attacks (all attacks; primary endpoint), patient diary
Format: in vivo, human
Conditions: for Weekly RP Attacks (All Attacks) Change from Baseline, Mean / Weekly RP Attacks (All Attacks) Change from Baseline, Median / Weekly RP Attacks (All Attacks) Percent Change from Baseline, Mean / Weekly RP Attacks (All Attacks) Percent Change from Baseline, Median / Weekly RP Attacks (All Attacks), Mean / Weekly RP Attacks (All Attacks), Median: ITT Part A
From the text: Percent change from baseline evaluation for frequency of weekly RP attacks were or will be used as the primary efficacy variable. The sponsor-developed participant-informed diary will be used to record data. Frequency of weekly RP attacks is defined as the total number of RP attacks divided by the number of days with available diary data within the last 7 days of each dosing period then multiplied by 7. Total number of RP attacks during the last 7 days of screening period divided by the number of days with available data then multiplied by 7 will be used as baseline for the analysis of all periods. The variable will be calculated as follows: […]
Percent change from baseline evaluation for frequency of weekly RP attacks was and will be the primary efficacy endpoint. Frequency of weekly RP attacks is defined as the total number of RP attacks divided by the number of days with available diary data within the last 7 days of each dosing period then multiplied by 7. Total number of RP attacks during the last 7 days of screening period divided by the number of days with available data then multiplied by 7 will be used as baseline for the analysis of all periods.

[1] = Cilnidipine 10 mg, Baseline RCS stratum 1 (upper half of table)
[2] = Cilnidipine 10 mg, Excluding Outliers, Baseline RCS stratum 1 (upper half of table)
[3] = Cilnidipine 20 mg, Baseline RCS stratum 1 (upper half of table)
[4] = Cilnidipine 20 mg, Excluding Outliers, Baseline RCS stratum 1 (upper half of table)
[5] = Pooled Cilnidipine 10 mg and Cilnidipine 10 mg + Tadalafil 5 mg, Baseline RCS stratum 2 (lower half of table)
[6] = Pooled Cilnidipine 10 mg and Cilnidipine 10 mg + Tadalafil 5 mg, Excluding Outliers, Baseline RCS stratum 1 (upper half of table)
[7] = Pooled Cilnidipine 10 mg and Cilnidipine 10 mg + Tadalafil 5 mg, Excluding Outliers, Baseline RCS stratum 2 (lower half of table)
[8] = Pooled Cilnidipine 10 mg and Cilnidipine 10 mg + Tadalafil 5 mg, n=3, excluding outliers, last 7 days of dosing
[9] = Pooled Cilnidipine 10 mg and Cilnidipine 10 mg + Tadalafil 5 mg, n=3, last 7 days of dosing
[10] = Pooled Cilnidipine 20 mg and Cilnidipine 20 mg + Tadalafil 5 mg, Baseline RCS stratum 1 (upper half of table)
[11] = Pooled Cilnidipine 20 mg and Cilnidipine 20 mg + Tadalafil 5 mg, Excluding Outliers, Baseline RCS stratum 1 (upper half of table)
[12] = Pooled Cilnidipine 20 mg and Cilnidipine 20 mg + Tadalafil 5 mg, Excluding Outliers, Baseline RCS stratum 2 (lower half of table)
[13] = Pooled Cilnidipine 20 mg and Cilnidipine 20 mg + Tadalafil 5 mg, n=4, excluding outliers, last 7 days of dosing
[14] = Pooled Cilnidipine 20 mg and Cilnidipine 20 mg + Tadalafil 5 mg, n=4, last 7 days of dosing
[15] = Pooled Cilnidipine arms, n=3, excluding outliers, last 7 days of dosing
[16] = Pooled Cilnidipine arms, n=3, last 7 days of dosing
[17] = Pooled Cilnidipine, Baseline RCS stratum 1 (upper half of table)
[18] = Pooled Cilnidipine, Excluding Outliers, Baseline RCS stratum 1 (upper half of table)
[19] = cilnidipine 10 mg daily, n=1, excluding outliers, last 7 days of dosing
[20] = cilnidipine 10 mg daily, n=1, last 7 days of dosing

COCCOC(=O)C1=C(C)NC(C)=C(C(=O)OC/C=C/c2ccccc2)C1c1cccc([N+](=O)[O-])c1 (stereo not drawn) [Cilnidipine]
Weekly RP Attacks (All Attacks) Change from Baseline, Mean [1]: −9.00 | Weekly RP Attacks (All Attacks) Change from Baseline, Median [1]: −9.00 | Weekly RP Attacks (All Attacks) Percent Change from Baseline, Mean [1]: −28.13% | Weekly RP Attacks (All Attacks) Percent Change from Baseline, Median [1]: −28.13% | Weekly RP Attacks (All Attacks), Mean [1]: 23.00 | Weekly RP Attacks (All Attacks), Median [1]: 23.00 | Weekly RP Attacks (All Attacks) Change from Baseline, Mean [2]: −9.00 | Weekly RP Attacks (All Attacks) Change from Baseline, Median [2]: −9.00 | Weekly RP Attacks (All Attacks) Percent Change from Baseline, Mean [2]: −28.13% | Weekly RP Attacks (All Attacks) Percent Change from Baseline, Median [2]: −28.13% | Weekly RP Attacks (All Attacks), Mean [2]: 23.00 | Weekly RP Attacks (All Attacks), Median [2]: 23.00 | Weekly attack frequency (change) (Cilnidipine 20 mg (n = 3)): −43% | Weekly RP Attacks (All Attacks) Change from Baseline, Mean [3]: −6.67 | Weekly RP Attacks (All Attacks) Change from Baseline, Median [3]: −6.67 | Weekly RP Attacks (All Attacks) Percent Change from Baseline, Mean [3]: −45.71% | Weekly RP Attacks (All Attacks) Percent Change from Baseline, Median [3]: −45.71% | Weekly RP Attacks (All Attacks), Mean [3]: 8.00 | Weekly RP Attacks (All Attacks), Median [3]: 8.00 | Weekly RP Attacks (All Attacks) Change from Baseline, Mean [4]: −6.67 | Weekly RP Attacks (All Attacks) Change from Baseline, Median [4]: −6.67 | Weekly RP Attacks (All Attacks) Percent Change from Baseline, Mean [4]: −45.71% | Weekly RP Attacks (All Attacks) Percent Change from Baseline, Median [4]: −45.71% | Weekly RP Attacks (All Attacks), Mean [4]: 8.00 | Weekly RP Attacks (All Attacks), Median [4]: 8.00 | Weekly RP Attacks (All Attacks) Change from Baseline, Median [5]: −5.00 | Weekly RP Attacks (All Attacks), Median [5]: 6.00 | Weekly RP Attacks (All Attacks) Change from Baseline, Mean [6]: −6.50 | Weekly RP Attacks (All Attacks) Change from Baseline, Median [6]: −6.50 | Weekly RP Attacks (All Attacks) Percent Change from Baseline, Mean [6]: −36.28% | Weekly RP Attacks (All Attacks) Percent Change from Baseline, Median [6]: −36.28% | Weekly RP Attacks (All Attacks), Mean [6]: 14.00 | Weekly RP Attacks (All Attacks), Median [6]: 14.00 | Weekly RP Attacks (All Attacks) Change from Baseline, Mean [7]: −5.00 | Weekly RP Attacks (All Attacks) Change from Baseline, Median [7]: −5.00 | Weekly RP Attacks (All Attacks) Percent Change from Baseline, Mean [7]: −45.45% | Weekly RP Attacks (All Attacks) Percent Change from Baseline, Median [7]: −45.45% | Weekly RP Attacks (All Attacks), Mean [7]: 6.00 | Weekly RP Attacks (All Attacks), Median [7]: 6.00 | Weekly RP Attacks (All Attacks) Change from Baseline, Mean [8]: −6.00 | Weekly RP Attacks (All Attacks) Change from Baseline, Median [8]: −5.00 | Weekly RP Attacks (All Attacks) Percent Change from Baseline, Mean [8]: −39.34% | Weekly RP Attacks (All Attacks) Percent Change from Baseline, Median [8]: −44.44% | Weekly RP Attacks (All Attacks), Mean [8]: 11.33 | Weekly RP Attacks (All Attacks), Median [8]: 6.00 | Weekly RP Attacks (All Attacks) Change from Baseline, Mean [9]: −6.00 | Weekly RP Attacks (All Attacks) Change from Baseline, Median [9]: −5.00 | Weekly RP Attacks (All Attacks) Percent Change from Baseline, Mean [9]: −39.34% | Weekly RP Attacks (All Attacks) Percent Change from Baseline, Median [9]: −44.44% | Weekly RP Attacks (All Attacks), Mean [9]: 11.33 | Weekly RP Attacks (All Attacks), Median [9]: 6.00 | Weekly RP Attacks (All Attacks) Percent Change from Baseline, Median [10]: −45.00% | Weekly RP Attacks (All Attacks), Median [10]: 11.00 | Weekly RP Attacks (All Attacks), Median (Pooled Cilnidipine 20 mg and Cilnidipine 20 mg + Tadalafil 5 mg, Baseline RCS stratum 2 (lower half of table)): 11.00 | Weekly RP Attacks (All Attacks) Change from Baseline, Mean [11]: −5.78 | Weekly RP Attacks (All Attacks) Percent Change from Baseline, Mean [11]: −37.49% | Weekly RP Attacks (All Attacks) Percent Change from Baseline, Median [11]: −45.00% | Weekly RP Attacks (All Attacks), Mean [11]: 10.33 | Weekly RP Attacks (All Attacks), Median [11]: 11.00 | Weekly RP Attacks (All Attacks) Change from Baseline, Mean [12]: −1.83 | Weekly RP Attacks (All Attacks) Change from Baseline, Median [12]: −1.83 | Weekly RP Attacks (All Attacks) Percent Change from Baseline, Mean [12]: −14.29% | Weekly RP Attacks (All Attacks) Percent Change from Baseline, Median [12]: −14.29% | Weekly RP Attacks (All Attacks), Mean [12]: 11.00 | Weekly RP Attacks (All Attacks), Median [12]: 11.00 | Weekly RP Attacks (All Attacks) Change from Baseline, Mean [13]: −4.79 | Weekly RP Attacks (All Attacks) Change from Baseline, Median [13]: −4.17 | Weekly RP Attacks (All Attacks) Percent Change from Baseline, Mean [13]: −31.69% | Weekly RP Attacks (All Attacks) Percent Change from Baseline, Median [13]: −33.03% | Weekly RP Attacks (All Attacks), Mean [13]: 10.50 | Weekly RP Attacks (All Attacks), Median [13]: 11.00 | Weekly RP Attacks (All Attacks) Change from Baseline, Mean [14]: −4.79 | Weekly RP Attacks (All Attacks) Change from Baseline, Median [14]: −4.17 | Weekly RP Attacks (All Attacks) Percent Change from Baseline, Mean [14]: −31.69% | Weekly RP Attacks (All Attacks) Percent Change from Baseline, Median [14]: −33.03% | Weekly RP Attacks (All Attacks), Mean [14]: 10.50 | Weekly RP Attacks (All Attacks), Median [14]: 11.00 | Weekly attack frequency (change) (Pooled Cilnidipine (n = 7)): −41% | Weekly RP Attacks (All Attacks) Change from Baseline, Mean [15]: −7.44 | Weekly RP Attacks (All Attacks) Change from Baseline, Median [15]: −9.00 | Weekly RP Attacks (All Attacks) Percent Change from Baseline, Mean [15]: −39.85% | Weekly RP Attacks (All Attacks) Percent Change from Baseline, Median [15]: −45.00% | Weekly RP Attacks (All Attacks), Mean [15]: 13.00 | Weekly RP Attacks (All Attacks), Median [15]: 11.00 | Weekly RP Attacks (All Attacks) Change from Baseline, Median [16]: −9.00 | Weekly RP Attacks (All Attacks) Percent Change from Baseline, Median [16]: −45.00% | Weekly RP Attacks (All Attacks), Mean [16]: 13.00 | Weekly RP Attacks (All Attacks), Median [16]: 11.00 | Weekly RP Attacks (All Attacks) Change from Baseline, Mean [17]: −7.44 | Weekly RP Attacks (All Attacks) Change from Baseline, Median [17]: −9.00 | Weekly RP Attacks (All Attacks) Percent Change from Baseline, Mean [17]: −39.85% | Weekly RP Attacks (All Attacks) Percent Change from Baseline, Median [17]: −45.00% | Weekly RP Attacks (All Attacks), Mean [17]: 13.00 | Weekly RP Attacks (All Attacks), Median [17]: 11.00 | Weekly RP Attacks (All Attacks) Change from Baseline, Mean [18]: −7.44 | Weekly RP Attacks (All Attacks) Change from Baseline, Median [18]: −9.00 | Weekly RP Attacks (All Attacks) Percent Change from Baseline, Mean [18]: −39.85% | Weekly RP Attacks (All Attacks) Percent Change from Baseline, Median [18]: −45.00% | Weekly RP Attacks (All Attacks), Mean [18]: 13.00 | Weekly RP Attacks (All Attacks), Median [18]: 11.00 | Weekly RP Attacks (All Attacks) Change from Baseline, Mean [19]: −9.00 | Weekly RP Attacks (All Attacks) Change from Baseline, Median [19]: −9.00 | Weekly RP Attacks (All Attacks), Mean [19]: 23.00 | Weekly RP Attacks (All Attacks), Median [19]: 23.00 | Weekly RP Attacks (All Attacks) Change from Baseline, Mean [20]: −9.00 | Weekly RP Attacks (All Attacks) Change from Baseline, Median [20]: −9.00 | Weekly RP Attacks (All Attacks), Mean [20]: 23.00 | Weekly RP Attacks (All Attacks), Median [20]: 23.00
